Non-standard residues stand in square brackets, D forms with d. Residues, ends and D or L forms follow the SMILES beside them. Cha = N[C@@H](CC1CCCCC1)C(=O)O
Key:
[1] = target: T1, human ghrelin receptor (GHSR) (Homo sapiens, UniProt Q92847, C146S/C304S); test: Bimane fluorescence assay on purified ghrelin receptor in nanodiscs; type: biochemical; settings: bimane labeled GHSR, in presence of JMV1843
T1 construct: integrin α5 fragment (N); polyhistidine tag (C); made in house; host or cells: E. coli BL21(DE3)
Outline: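 E. coli-expressed human ghrelin receptor (cysmin mutant, N-terminal integrin α5 fragment, C-terminal His-tag) purified into lipid nanodiscs and labelled with monobromobimane at Cys255 (16 h, 4° C, dark). Labelled receptor (0.2 μM final) incubated 2 h at 20° C with or without JMV1843 (20 μM) and peptidomimetics at varying molar ratios, or Gαqβ1γ2 at 1:5 receptor:G protein; emission scanned 440–520 nm with excitation at 380 nm for λmax shift.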

ghrelin receptor = target: T2, ghrelin receptor (Homo sapiens, UniProt Q92847); test: IP-One Gq assay; type: cell-based; settings: peptidomimetic at 10 μM, varying MK0677; FIG. 8
T2 construct: expressed in transfected cells; host or cells: HEK293 cells overexpressing the ghrelin receptor
T2 sequence (Q92847 whole entry): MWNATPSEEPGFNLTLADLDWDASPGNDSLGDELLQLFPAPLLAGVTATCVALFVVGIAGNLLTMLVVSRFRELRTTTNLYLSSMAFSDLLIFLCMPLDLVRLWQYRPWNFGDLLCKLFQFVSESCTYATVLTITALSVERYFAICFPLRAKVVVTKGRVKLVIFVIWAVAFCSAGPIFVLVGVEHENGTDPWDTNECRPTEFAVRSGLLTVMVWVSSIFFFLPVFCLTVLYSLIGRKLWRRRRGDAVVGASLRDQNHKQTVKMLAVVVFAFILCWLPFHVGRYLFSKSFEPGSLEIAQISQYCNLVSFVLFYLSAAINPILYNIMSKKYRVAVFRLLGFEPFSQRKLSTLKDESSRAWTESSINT
Protocol: IP-One assays were conducted by using a homogeneous time-resolved fluorescence resonance energy transfer (TRFRET) assay (cisbio, IP-One Gq kit). The assays were performed on 384-well plates, containing 5000 cells/well. The HEK293 cells, in stimulation buffer (1×), were incubated with 5 or 10 μM of peptides (in stimulation buffer) during 1 h at 37° C. […] Finally, the d2-labeled IP1 and anti-IP1-cryptate, diluted in lysis buffer, were added to each well and incubated at room temperature. After 2 h of incubation in the dark, the plates were analyzed using the PHERAstar microplate reader.
The IP-One Gq assay detects the accumulation of inositol monophosphate (IP1), a metabolite produced following phospholipase C activation.
The assays were performed on 384-well plates containing HEK293 cells that overexpress the ghrelin receptor. First, the Gq/11 peptidomimetics were incubated during 1 h to allow penetration in the cells. […] After 45 min of incubation, the cells were lysed and d2-labeled IP1 (acceptor, 665 nm) was exogenously added to compete with the native unlabeled IP1 for binding with the anti-IP1-Cryptate (donor, 620 nm). Fluorescence was measured and the fluorescence ratio (665 nm/620 nm) was determined.

T1 sequence (Q92847 whole entry C146S/C304S, the tested form may be a part): as the sequence (Q92847 whole entry) above, with C146S, C304S counted along it

CC[C@H](C)[C@H](NC(=O)[C@@H](NC(=O)[C@H](CC(=O)O)NC(=O)[C@H](CCCCN)NC(=O)[C@@H](NC(=O)[C@H](C)NC(=O)[C@H](C)NC(=O)[C@H](Cc1ccccc1)NC(=O)[C@H](CCCCN)NC(=O)[C@H](CCCCN)NC(=O)[C@H](CCCCN)NC(C)=O)C(C)C)[C@@H](C)O)C(=O)N[C@@H](CC(C)C)C(=O)N[C@@H](CCC(N)=O)C(=O)N[C@@H](CC(C)C)C(=O)N[C@@H](CC(N)=O)C(=O)N[C@@H](CC(C)C)C(=O)N[C@@H](CCCCN)C(=O)N[C@@H](CCC(=O)O)C(=O)N[C@@H](Cc1ccc(O)cc1)C(=O)N[C@@H](CC(N)=O)C(=O)N[C@@H](CC1CCCCC1)C(=O)N[C@H](C(=O)O)C(C)C [SBL-GQ-04] (Ac-KKKFAAVKDTILQLNLKEYN[Cha]V-OH)
conformational change in the receptor [1]: not able to induce a conformational change | receptor activation / fluorescence ratio (665 nm/620 nm) vs absence of peptidomimetic (ghrelin receptor): Almost no difference in receptor activation

Source: patent publication US20260242759A1, “GQ/11 Protein Peptidomimetics” (Vrije Universiteit Brussel, priority 2022, published 2026)
